Assay results as given in patent US11554182B2, “Macrocyclic complexes of alpha-emitting radionuclides and their use in targeted radiotherapy of cancer” (CORNELL UNIVERSITY, priority 2017, dated 2023).

Assays:
[1] = Kinetic inertness of ^225Ac complex: transmetalation challenge with La^3+; format: physicochemical; conditions: 50-fold excess of La^3+, macropa 0.59 μM, RT, over 7 days
Protocol: General. Stock solutions of La(NO3)3 (0.001 M or 0.1 M) were prepared in H2O. To the radiolabeled samples containing macropa (10 μL of 10^−5 M stock; 1.0×10^−10 moles) or DOTA (10 μL of 10^−3 M stock; 1.0×10^−8 moles) and ^225Ac (10 μL, 26 kBq) in NH4OAc buffer (pH 6, 0.15 M, 150 μL), a 50-fold mole excess of La^3+ was added (5 μL of 0.001 M or 0.1 M stock were added to solutions containing macropa and DOTA, respectively). The solutions were kept at room temperature and analyzed by iTLC at several time points over the course of 8 days. The iTLC plates were developed using citric acid (0.05 M, pH 5) as the eluent. Under these conditions, [^225Ac(macropa)]^+ and [^225Ac(DOTA)]^− remained at the baseline (RF=0) and any unchelated ^225Ac (^225Ac-citrate) migrated with the solvent front (RF=1). Percent of complex remaining intact was calculated by integrating area under the peaks on the radiochromatogram and dividing the counts associated with the ^225Ac-complex (RF=0) by the total counts integrated along the length of the iTLC plate.
(§1) The long half-life of ^225Ac necessitates its stable complex retention in vivo to avoid off-target damage to normal tissues arising from the release of free ^225Ac^3+. Furthermore, the stability of ^225Ac complexes against transmetalation and transchelation needs to be high. […]

[2] = Stability of [^225Ac(macropa)]^+ in human serum (radio-TLC); format: in vitro ADME
Protocol: […]. [^225Ac(macropa)]^+ and [^225Ac(DOTA)]^− were prepared using 10^−5 M and 10^−3 M stock solutions (10 μL) of macropa and DOTA, respectively, to give final ligand concentrations of 5.9×10^−7 M (macropa) and 5.9×10^−5 M (DOTA). After confirming a radiochemical yield of >90% by TLC using 0.4 M sodium citrate (pH 4) containing 10% MeOH as the mobile phase, 160 μL of human serum (an equal volume based on labeling reaction volume) were added to each radiolabeled solution. A control solution was also prepared in which water was substituted for ligand. The solutions were monitored over the course of 8 days by iTLC. The plates were developed with EDTA (50 mM, pH 5) as the eluent. Under these conditions, [^225Ac(macropa)]^+ and [^225Ac(DOTA)]^− complexes remained at the baseline (RF=0) and any ^225Ac (^225Ac-EDTA) that had been transchelated by serum migrated with the solvent front (RF=1). Percent of complex remaining intact was calculated.
as §1, with “high. To determine the kinetic inertness, [^225Ac(macropa)]^+ was challenged with La^3+ because of the established high affinity of macropa for this metal ion.” for “high.”

## O=C([O-])c1cccc(CN2CCOCCOCCN(Cc3cccc(C(=O)[O-])n3)CCOCCOCC2)n1.[225Ac+3] [[^225Ac(macropa)]^+]
[1]
  ^225Ac complex remaining intact: 98%
[2]
  time ^225Ac^3+ remains complexed in human serum: at least 8 days
